From patent US20220298160A1, “COMPOUNDS USEFUL IN HIV THERAPY” (priority 2019, published 2022) come the findings set out here.

pIC50: −log10 of the molar value.

Assay [1] relates to HIV pseudotyped virus (NL4-3 provirus), WT. The experiment in a line: PSV assay (pseudotyped virus assay), WT. To be noted: Human immunodeficiency virus 1, NL43, in Homo sapiens, 72 h, read-out: WT IC50 (μM), PSV assay; U373 cells expressing human CD4 and CXCR4 or CCR5; luciferase signal after 3 days of culture.
From the text: A pseudotyped virus assay (PSV) was used to assess the potency of the HIV inhibitor. Replication defective virus was produced by co-transfection of a plasmid containing an NL4-3 provirus [containing a mutation in the envelope open reading frame (ORF) and a luciferase reporter gene replacing the nef ORF] and a CMV-promoter expression plasmid containing an ORF for various HIV gp160 envelope clones. The harvested virus was stored at −80 C in small aliquots and the titer of the virus measured to produce a robust signal for antiviral assays.
The PSV assay was performed by using U373 cells stably transformed to express human CD4, the primary receptor for HIV entry and either human CXCR4 or human CCR5 which are the co-receptors required for HIV entry as target cells for infection. […] This dose-range was applied to U373 cells and the pre-made pseudotyped virus added. The amount of luciferase signal produced after 3 days of culture was used to reflect the level of pseudotyped virus infection. An IC50, or the concentration of inhibitor required to reduce PSV infection by 50% from the infection containing no inhibitor was calculated. […] IC50 values were determined from a 10 point dose response curve using 3-4-fold serial dilution for each compound, which spans a concentration range >1000 fold.
In assay [2] the test system is HIV pseudotyped virus (NL4-3 provirus), M184V. It counts as cell-based. The conditions noted are these: PSV assay; U373 cells expressing human CD4 and CXCR4 or CCR5; luciferase signal after 3 days of culture.

Regarding `C#C[C@]1(CO)O[C@@H](n2cnc3c(N)nc(F)nc32)C[C@@H]1OC(=O)OC1COC(=O)CCCCCCCCCCCC(=O)OC1` [Example 31, (2R,3S,5R)-5-(6-amino-2-fluoro-9H-purin-9-yl)-2-ethynyl-2-(hydroxymethyl)tetrahydrofuran-3-yl (6,18-dioxo-1,5-dioxacyclooctadecan-3-yl) carbonate], the IC50 – broadly, the midpoint of a concentration-inhibition curve – in assay [1] was 0.0151 µM. For the same compound, the pIC50 – broadly, the IC50 on a negative log10 scale, so that one unit is a factor of ten – in assay [2] is 7.32.
Take `C#C[C@]1(CO)O[C@@H](n2cnc3c(N)nc(F)nc32)C[C@@H]1OC(=O)NCCCCC` [Example 19, (2R,3S,5R)-5-(6-amino-2-fluoro-9H-purin-9-yl)-2-ethynyl-2-(hydroxymethyl)tetrahydrofuran-3-yl pentylcarbamate]: the IC50 in assay [1] amounted to 1.77 µM. The same compound had a pIC50 in assay [2] of 5.03.
As to `C#C[C@]1(CO)O[C@@H](n2cnc3c(N)nc(F)nc32)C[C@@H]1OC(=O)OCc1ccc(OC(=O)CCCCCCCCCCCCCCCCCCC)cc1` [Example 11, 4-((((((2R,3S,5R)-5-(6-amino-2-fluoro-9H-purin-9-yl)-2-ethynyl-2-(hydroxymethyl)tetrahydrofuran-3-yl)oxy)carbonyl)oxy)methyl)phenyl icosanoate], the IC50 in assay [1] came to 2.31 µM. Further, the pIC50 in assay [2] was 5.49.
Consider `C#C[C@]1(CO)O[C@@H](n2cnc3c(N)nc(F)nc32)C[C@@H]1OC(=O)NCCCCCCCC` [Example 17, (2R,3S,5R)-5-(6-amino-2-fluoro-9H-purin-9-yl)-2-ethynyl-2-(hydroxymethyl)tetrahydrofuran-3-yl octylcarbamate], for which, in assay [1], the IC50 was more than 15 µM. Also, the pIC50 in assay [2] is less than 4.82.
For `C#C[C@]1(COC(=O)NC)O[C@@H](n2cnc3c(N)nc(F)nc32)C[C@@H]1O` [Example 5, ((2R,3S,5R)-5-(6-amino-2-fluoro-9H-purin-9-yl)-2-ethynyl-3-hydroxytetrahydrofuran-2-yl)methyl methylcarbamate], the IC50 in assay [1] turned out to be 15.4 µM. In addition, the pIC50 in assay [2] is less than 4.60.
For the compound `C#C[C@]1(COC(=O)NC(C)C)O[C@@H](n2cnc3c(N)nc(F)nc32)C[C@@H]1O` [Example 6, ((2R,3S,5R)-5-(6-amino-2-fluoro-9H-purin-9-yl)-2-ethynyl-3-hydroxytetrahydrofuran-2-yl)methyl isopropylcarbamate], the IC50 in assay [1] turned out to be 0.56 µM. The compound further had a pIC50 in assay [2] of 5.97.
For the compound `C#C[C@]1(CO)O[C@@H](n2cnc3c(NC(=O)OC(COCCCCC)COC(=O)CCCC)nc(F)nc32)C[C@@H]1O` (single isomer, unassigned) [Example 37], the IC50 in assay [1] stood at 0.0095 µM. In addition, in assay [2], the pIC50 is 7.49.
With `C#C[C@]1(COC(=O)NC(C)(C)C)O[C@@H](n2cnc3c(N)nc(F)nc32)C[C@@H]1O` [Example 8, ((2R,3S,5R)-5-(6-amino-2-fluoro-9H-purin-9-yl)-2-ethynyl-3-hydroxytetrahydrofuran-2-yl)methyl tert-butylcarbamate], the IC50 in assay [1] stood at 0.142 µM. The compound also had a pIC50 in assay [2] of 5.95.
Regarding `C#C[C@]1(CO)O[C@@H](n2cnc3c(N)nc(F)nc32)C[C@@H]1OC(=O)NC(C)C` [Example 20, (2R,3S,5R)-5-(6-amino-2-fluoro-9H-purin-9-yl)-2-ethynyl-2-(hydroxymethyl)tetrahydrofuran-3-yl isopropylcarbamate], the IC50 in assay [1] amounted to 10.5 µM. In assay [2], the pIC50 is less than 4.60.
The corresponding values for `C#C[C@]1(CO)O[C@@H](n2cnc3c(NC(=O)OC(COC(=O)CCCCCCCC)COC(=O)CCCCCCCC)nc(F)nc32)C[C@@H]1O` [Example 33, 2-(((9-((2R,4S,5R)-5-ethynyl-4-hydroxy-5-(hydroxymethyl)tetrahydrofuran-2-yl)-2-fluoro-9H-purin-6-yl)carbamoyl)oxy)propane-1,3-diyl dinonanoate] are 0.0054 µM and 7.61.
